Source: PMC6152192, “Novel Methylselenoesters as Antiproliferative Agents” (Molecules : A Journal of Synthetic Chemistry and Natural …, 2017)

What was measured:
[1] = system: BEAS-2B (non-malignant bronchial epithelial); assay: MTT viability assay, BEAS-2B; type: cell-based; settings: BEAS-2B non-malignant, 72 h, MTT; for CC50: read-out: LC50 (the source's name)
Procedure: (§1) The novel compounds were tested against a panel of different cancer lines: PC-3 (prostate adenocarcinoma), MCF7 (mammary adenocarcinoma), HTB-54 (lung carcinoma), K-562 (chronic myelogenous leukemia) and HT-29 (colorectal adenocarcinoma). Two non-malignant cell lines, BEAS-2B (bronchial epithelial) and 184B5 (mammary epithelial) were also included to evaluate the toxicity of the novel synthesized compounds. The antiproliferative activity was measured with the [3-(4,5-dimethylthiazol-2-yl)-2,5-diphenyltetrazolium bromide] (MTT) assay after 72 h treatment. Six concentrations ranging from 0.1 to 100 μM were tested. MSA is largely known as the main CH3SeH putative precursor and was therefore included as positive control. The following parameters were calculated: GI50 (concentration which reduces the growth by 50%), TGI (concentration completely inhibiting growth) and LC50 (concentration that kills 50% of the cells).
(§2) All cells were purchased from the American Type Culture Collection (ATCC, Barcelona, Spain). HT-29 (colorectal adenocarcinoma), HTB-54 (grade III lung carcinoma), MCF7 (mammary adenocarcinoma), PC-3 (grade IV prostate adenocarcinoma) and K-562 (chronic myelogenous leukemia) were cultured in RPMI (Gibco, Madrid, Spain), 10% FBS (Gibco), 100 units/mL penicillin and 100 μg/mL streptomycin (Gibco). BEAS-2B cell line (normal epithelial lung) was cultured in DMEM (Gibco), 10% FBS, 100 units/mL penicillin and 100 μg/mL streptomycin. 184B5 (normal mammary gland) cell line was cultured in DMEM:F12 supplemented with 5% FBS, 1 × ITS (Lonza, Barcelona, Spain), 100 nM hydrocortisone (Sigma-Aldrich), 2 mM sodium pyruvate (Lonza), 20 ng/mL EGF (Sigma-Aldrich), 0.3 nM trans-retinoic acid (Sigma-Aldrich), 100 units/mL penicillin and 100 µg/mL streptomycin. Cells were cultured at 37 °C under 5% CO2.
(§3) Cell viability after treatment was assessed by the well-known 3-(4,5-dimethyl-thiazol-2-yl)-2,5-diphenyltetrazolium bromide (MTT, Sigma-Aldrich) assay. Briefly, 10,000 cells were seeded in 96-well plates, treated and incubated for 72 h. Dilutions of the compounds in cell medium were freshly prepared from a 0.01 M stock in DMSO. After treatment, 50 μL of MTT solution in PBS (2 mg/mL) were added and cells were incubated for 4 h. Medium was removed and 150 μL of DMSO was added to dissolve the formed formazan crystals. Absorbance was read at 550 nm in a microplate absorbance reader (Sunrise, Tecan, Männedorf, Switzerland).

[2] = system: HTB-54 (lung carcinoma); assay: MTT viability assay, HTB-54; type: cell-based; settings: HTB-54, 72 h, MTT; for CC50: read-out: LC50 (the source's name)
Procedure: as §1, §2, §3

[3] = system: MCF7 (mammary adenocarcinoma); assay: MTT viability assay, MCF7; type: cell-based; settings: MCF7, 72 h, MTT; for CC50: read-out: LC50 (the source's name)
Procedure: as §1, §2, §3

[4] = system: PC-3 (prostate adenocarcinoma); assay: MTT viability assay, PC-3; type: cell-based; settings: PC-3, 72 h, MTT; for CC50: read-out: LC50 (the source's name)
Procedure: as §1, §2, §3

[5] = system: K-562 (chronic myelogenous leukemia); assay: MTT viability assay, K-562; type: cell-based; settings: K-562, 72 h, MTT; for CC50: read-out: LC50 (the source's name)
Procedure: as §1, §2, §3

[6] = system: 184B5 (non-malignant mammary epithelium); assay: MTT viability assay, 184B5; type: cell-based; settings: 184B5 non-malignant, 72 h, MTT; for CC50: read-out: LC50 (the source's name)
Procedure: as §1, §2, §3

[7] = system: HT-29 (colorectal adenocarcinoma); assay: MTT viability assay, HT-29; type: cell-based; settings: HT-29, 72 h, MTT; for CC50: read-out: LC50 (the source's name)
Procedure: as §1, §2, §3

[8] = Methylselenol (CH3SeH) release by hydrolysis, quantified with DTNB (Ellman's reagent); type: physicochemical; settings: 100 μM compound, 100 μM DTNB, 100 mM phosphate buffer, 1 mM EDTA, pH 8, followed over 72 h
Description: The new compounds were designed as CH3SeH precursors. The chemical features of the selenoester functional group facilitate a nucleophilic attack (i.e., with water) which would deliver the CH3SeH residue. In order to verify if CH3SeH could be released from the molecules by hydrolysis and if the rate differed among the compounds, the reaction of CH3SeH with 5,5′-dithiobis(2-nitrobenzoic acid) (DTNB or Ellman’s reagent) in aqueous environment was monitored. Briefly, when the disulfide bridge of DTNB reacts with thiols or selenols, 2-nitro-5-thiobenzoate (TNB^2−) is released and the mixed disulfide or selenylsulfide is formed. Each released CH3SeH produces one yellow TNB^2− species, whose absorbance can be quantified at 412 nm (Figure 2A).
A stock solution of the compounds was prepared in anhydrous DMSO (10 mM). The compounds were placed in a 96-well plate in a final concentration of 100 μM. Reaction started after adding 200 μL of an aqueous 100 mM Na2HPO4 buffer (1 mM EDTA, pH = 8), containing 100 μM of DTNB from a freshly prepared 10 mM ethanolic stock, which were added just before starting the reaction. The DTNB concentration was quantified with a cysteine standard curve ([…]). Blanks for the compounds in the absence of DTNB were also included as well as a blank to measure the slow but spontaneous hydrolysis of DTNB, which was further subtracted from all the values. Absorbance was read at 412 nm in a FLUOstar Omega microplate reader (BMG LabTech, Ortenberg, Germany). Results represent means of triplicate values ± SD.
Figure 2 CH3SeH release rates are dependent on the chemical features of the molecule. Released CH3SeH was quantified through reaction with Ellman’s reagent (DTNB). (A) Proposed reaction between CH3SeH and DTNB; (B) Quantification of TNB^2− at different times. The compounds were tested at 100 μM in 200 μL of 100 mM phosphate buffer (1 mM EDTA, pH = 8). DTNB concentration was also 100 μM. Absorbance was followed at 412 nm over 72 h. A cysteine standard curve (7.5–150 μM) was used to calculate the concentration of TNB^2− over time. Compounds showing less than 15% hydrolysis at 72 h are not included, except for compound 5 as example. Error bars indicate SD of triplicates.

## Methyl 2-thiophencarboselenoate [Compound 4]
[1]
  GI50: 2.9 ± 0.3 µM
  TGI: 5.8 ± 0.7 µM
  CC50: 8.7 ± 2.1 µM
[2]
  GI50: 8.5 ± 3.1 µM
  TGI: 39.0 ± 3.1 µM
  CC50: 73.9 ± 4.1 µM
[3]
  GI50: 5.3 ± 1.4 µM
  TGI: 22.8 ± 3.8 µM
  CC50: 89.6 ± 4.1 µM
[4]
  GI50: 5.2 ± 0.9 µM
  TGI: 19.4 ± 3.6 µM
  CC50: 62 ± 4.9 µM
[5]
  GI50: 40.6 ± 4.5 µM
  TGI: 74.6 ± 4.9 µM
  CC50: > 100 µM
[6]
  GI50: 3.6 ± 0.8 µM
  TGI: 7.2 ± 1.4 µM
  CC50: 27.9 ± 4.6 µM
[7]
  GI50: 3.4 ± 0.2 µM
  TGI: 7.2 ± 1.2 µM
  CC50: 47.5 ± 3.2 µM

## Methyl 3-quinolinecarboselenoate [Compound 9]
[1]
  GI50: 4.1 ± 1 µM
  TGI: 7.1 ± 4.5 µM
  CC50: 15.3 ± 9.1 µM
[2]
  GI50: 7.8 ± 1.2 µM
  TGI: 33.0 ± 4.5 µM
  CC50: 69.2 ± 2.7 µM
[3]
  GI50: 4.4 ± 0.8 µM
  TGI: 8.1 ± 1.2 µM
  CC50: 48 ± 7.5 µM
[4]
  GI50: 5.9 ± 0.5 µM
  TGI: 10.0 ± 1.9 µM
  CC50: 84.1 ± 8.9 µM
[5]
  GI50: 39.5 ± 3.1 µM
  TGI: 72.6 ± 4.1 µM
  CC50: > 100 µM
[6]
  GI50: 3.7 ± 0.5 µM
  TGI: 6.2 ± 0.4 µM
  CC50: 8.6 ± 0.4 µM
[7]
  GI50: 3.4 ± 0.2 µM
  TGI: 7.0 ± 0.2 µM
  CC50: 37.2 ± 5 µM
[8]
  CH3SeH release / hydrolysis rate: more sustained release

## Methyl 4-methoxybenzoselenoate [Compound 2]
[1]
  GI50: 3.2 ± 0.5 µM
  TGI: 5.8 ± 0.6 µM
  CC50: 8.4 ± 1 µM
[2]
  GI50: 6.8 ± 1.7 µM
  TGI: 29.7 ± 4.3 µM
  CC50: 70 ± 2.9 µM
[3]
  GI50: 4.1 ± 0.8 µM
  TGI: 9.3 ± 4.1 µM
  CC50: 74.8 ± 4 µM
[4]
  GI50: 7.3 ± 1.7 µM
  TGI: 45.1 ± 4.5 µM
  CC50: > 100 µM
[5]
  GI50: 40.8 ± 4.8 µM
  TGI: 70.6 ± 5.9 µM
  CC50: > 100 µM
[6]
  GI50: 3.7 ± 0.8 µM
  TGI: 6.4 ± 1.5 µM
  CC50: 9 ± 2.1 µM
[7]
  GI50: 4.1 ± 0.1 µM
  TGI: 7.5 ± 1.1 µM
  CC50: 50 ± 2.4 µM

## Methyl 9-acridinecarboselenoate [Compound 13]
[1]
  GI50: 3.8 ± 0.1 µM
  TGI: 6.4 ± 0.2 µM
  CC50: 8.9 ± 0.4 µM
[3]
  GI50: 4.2 ± 1.8 µM
  TGI: 35.4 ± 4.7 µM
  CC50: 83.4 ± 4.1 µM
[4]
  TGI: >100 µM
  CC50: > 100 µM
[6]
  GI50: 6.6 ± 1.2 µM
  TGI: 26.8 ± 1.0 µM
  CC50: 65 ± 4.5 µM
[7]
  GI50: 6 ± 0.5 µM
  TGI: 16.5 ± 1.9 µM
  CC50: 66.6 ± 0.1 µM
